According to US10499676B2, “Intestinal barrier integrity” (N.V. Nutricia, priority 2004, dated 2019):

Key:
[1] = system: intestinal epithelial cell line T84 monolayers; assay: Effect of LC-PUFA on basal (spontaneous) barrier integrity: TER and 4 kDa FITC-dextran flux; type: cell-based, human; settings: for basal barrier integrity (TER), time and dose dependent effect: FIGS. 1A and 1B, 10 μM and 100 μM; for Flux / Resistance (TER): fatty acid 100 μM, 72 hr incubation, spontaneous barrier integrity; for Flux: 4 kDa FITC-dextran
Method: (§1) Monolayers (MC) of intestinal epithelial cell lines T84 (American Type Culture Collection (ATTC), Manassas, USA) were cultured on transwell filters (Corning, Costar BV, The Netherlands) allowing both mucosal and serosal sampling and stimulation of human intestinal epithelial cells. Two weeks post confluency the monolayers were incubated in the luminal compartment with polyunsaturated fatty acids ARA (arachidonic acid; 5,8,11,14-eicosatetraenoic acid), DHA (cis-4,7,10,13,16,19 docosahexaenoic acid), EPA (eicosapentaenoic acid) or control palmitic (C 16:0) acid (Palm) (Sigma, St. Louis, USA). The latter procedure was chosen to mimic the in vivo administration route of the dietary compounds. Cells were incubated with ARA, DHA, EPA, or palmitic acid for 0, 24, 48 and 72 hr at different concentrations (10 μM and 100 μM). Experiments were performed to evaluate basal barrier integrity. The epithelial barrier function was determined by measuring the transepithelial resistance (TER, Ω·cm^2) was measured by epithelial volt-ohm meter (EVOM; World Precision Instruments, Germany) and permeability for 4 kD FITC dextran (paracellular permeability marker, Sigma, USA). Resistance (Epithelial permeability for 4 kDa FITC-dextran was determined as follows. Prior to dextran fluxes the medium was refreshed with culture medium without phenol red for one hour followed by addition of 5 μl (stock 100 mg/ml) 4 kDa FITC-dextran to the lumenal compartment. After 30 min incubation 100 μl sample was collected from the serosal compartment and the fluorescent signal measured at excitation wavelength 485 nm and emission 520 nm (FLUOstar Galaxy®, BMG Labtechnologies, USA). FITC-dextran fluxes were calculated as pmol FITC-dextran/cm^2/h. Statistical analyses were performed using the ANOVA (SPSS version 10).

[2] = system: intestinal epithelial cell line T84 monolayers incubated with IL-4; assay: Effect of LC-PUFA on IL-4 mediated barrier disruption: TER and 4 kDa FITC-dextran flux; type: cell-based, human; settings: for protective effect on IL-4 mediated barrier destruction (Flux), time and dose dependent: FIGS. 2A and 2B, 10 μM and 100 μM, 4 kD dextran flux; for IL-4 Flux / IL-4 TER: fatty acid 100 μM, 48 hr pre-incubation then 48 hr co-incubation with IL-4 2 ng/ml
Method: as §1
Monolayers (MC) of intestinal epithelial cell lines T84 (ATCC, USA) were cultured on transwell filters (Corning, Costar BV, The Netherlands) allowing both mucosal and serosal sampling and stimulation of human intestinal epithelial cells. Two weeks post confluency the monolayers were incubated in the presence of IL-4 (2 ng/ml, serosal compartment, Sigma, USA) with or without polyunsaturated fatty acids ARA, DHA, GLA, EPA, or control palmitic acid (10 μM or 100 μM, mucosal compartment, Sigma, St. Louis, USA). Cells were pre-incubated with ARA, DHA, EPA, or palmitic acid for 48 hr prior to the IL-4 incubation. The co-incubation of PUFA's and palmetic acid with IL-4 was continued for another 48 hr; while culture medium and additives were changed every 24 hr. The epithelial barrier function was determined by measuring the transepithelial resistance (TER) and permeability as described in example 1. Statistical evaluation was performed as described in example 1.

[3] = system: MUC-2 expression in intestinal epithelial T84 cells; settings: FIG. 4, 24 h, 0.025-4.0 mM, compared to propionate and butyrate

Compound	basal barrier integrity (TER), time and dose dependent effect [1]	Flux [1]	Resistance (TER) [1]	protective effect on IL-4 mediated barrier destruction (Flux), time and dose dependent [2]	IL-4 Flux [2]	IL-4 TER [2]	MUC-2 expression (mucus production) [3]
CCCCC/C=C\C/C=C\C/C=C\C/C=C\CCCC(=O)O [ARA, 5,8,11,14-eicosatetraenoic acid]	increased resistance	28 pmol FITC-dextran/cm^2/h	1816 Ω·cm^2	decreased 4 kD dextran flux	218 pmol FITC-dextran/cm^2/h	636 Ω·cm^2	
CCC=CCC=CCC=CCC=CCC=CC/C=C\CCC(=O)O [DHA, cis-4,7,10,13,16,19 docosahexaenoic acid]	increased resistance	72 pmol FITC-dextran/cm^2/h	1574 Ω·cm^2	decreased 4 kD dextran flux	271 pmol FITC-dextran/cm^2/h	547 Ω·cm^2	
CC/C=C\C/C=C\C/C=C\C/C=C\C/C=C\CCCC(=O)O [EPA, eicosapentaenoic acid]		65 pmol FITC-dextran/cm^2/h	1493 Ω·cm^2		228 pmol FITC-dextran/cm^2/h	539 Ω·cm^2	
CCCCC/C=C\C/C=C\C/C=C\CCCCC(=O)O [GLA]	increased resistance			decreased 4 kD dextran flux			
CCCCCCCCCCCCCCCC(=O)O [Palmitic acid, palmitic (C 16:0) acid, reference compound]		161 pmol FITC-dextran/cm^2/h	831 Ω·cm^2		777 pmol FITC-dextran/cm^2/h	321 Ω·cm^2	
CC(=O)O [acetate]							more potent in stimulating MUC-2 expression
